This is an account of results in US11413279B2, “Methods and compositions for the antiviral use of synthetic lysine analogs and mimetics” (priority 2017, dated 2022).

Where “and” joins values, the source holds several entries; their conditions need not be identical. Identical values can stand only once. Like-named read-outs stand apart in the source and are kept apart here. Some results are limits rather than exact numbers.

Data set [1] has as its system Herpes Simplex Virus Type 1 (HSV-1). As to the kind of experiment: Antiviral activity of tranexamic acid/L-arginine against HSV-1. As to conditions: for Viral Promotion (%) / Output Viral Titer (Log10TCID50) / Titer (Log10TCID50/mL) / Viral Reduction (%): contact time 48 ± 8 hours; for Log10 Titer Difference: vs input virus control average 6.39. In kind it is cell-based.

Data set [2] relates to Herpes Simplex Virus Type 2 (HSV-2). As to the kind of experiment: Antiviral activity of tranexamic acid/L-arginine against HSV-2. In kind it is cell-based. As to conditions: contact time 48 ± 8 hours.
In data set [3] the test system is Herpes Simplex Virus Type 1 (HSV-1). It counts as cell-based. The protocol:
(§1) Contact time for each sample was 48±2 hours and Log10 titer reductions were generated using the input viral titer (Log10TCID50) and the output viral titer (Log10TCID50).
The plate was incubated for 48±2 hours at 36±2° C. with 5±3% CO2. The plate was then frozen at −60 to −90° C., thawed, and the contents of each well centrifuged at 2,000 RPM for 10 minutes. The supernatant from each well was collected and assayed for infectious virus.
as §1

Data set [4] relates to cell medium used for HSV-1 and HSV-2. Kind of data set: Cytotoxicity limit in the cell medium used for HSV-1 and HSV-2.
The subject of data set [5] is recurrent outbreaks of cold sores. Kind of data set: Topical treatment and prophylactic use in human subjects with recurrent cold sores. It counts as in vivo.
Data set [6] deals with Herpes Simplex Virus Type 2 (HSV-2). The settings on record: contact time 48 ± 8 hours.
For data set [7], the system named is Herpes Simplex Virus Type 1 (HSV-1). As to conditions: contact time 48 ± 8 hours.
The mark [8] stands for this setting: 5,000 μM L-arginine alone, listed as L-arginine.
Where [9] appears, read: 10,000 μM L-arginine alone, listed as L-arginine.
The mark [10] stands for this setting: 2% (w/v) tranexamic acid alone, listed as tranexamic acid.
[11] abbreviates: tranexamic acid 0.5% (w/v), high virus inocula.
Where [12] appears, read: tranexamic acid 0.5% (w/v), low virus inocula.
Setting [13] is: tranexamic acid 0.5% (w/v), low virus inocula, listed as tranexamic acid.
The mark [14] stands for this setting: tranexamic acid 1.0% (w/v), high virus inocula.
The mark [15] stands for this setting: tranexamic acid 1.0% (w/v), high virus inocula, listed as tranexamic acid.
[16] abbreviates: tranexamic acid 1.0% (w/v), low virus inocula.
The mark [17] stands for this setting: tranexamic acid 1.0% (w/v), low virus inocula, listed as tranexamic acid.
The mark [18] stands for this setting: tranexamic acid 2.0% (w/v), high virus inocula.

As to `N=C(N)NCCC[C@H](N)C(=O)O` [L-Arginine, L-arginine], the “Viral Promotion (%)” value is 54% in data set [1] (setting [8]); 85% and 80% and 83% in data set [1] (10,000 μM L-arginine alone); 85% in data set [1] (setting [9]); 85% and 74% and 65% in data set [1] (25,000 μM L-arginine alone); 85% in data set [1] (25,000 μM L-arginine alone, listed as L-arginine); 44% and 76% in data set [2] (5,000 μM L-arginine alone). Further, the “Viral Promotion (%)” value is reported as 76% in data set [2] (setting [8]), 76% in data set [2] (setting [9]) and 3% in data set [2] (25,000 μM L-arginine alone). In addition, the “Output Viral Titer (Log10TCID50)” value in data set [1] (10,000 μM L-arginine alone) is 7.21 Log10TCID50 and 7.09 Log10TCID50 and 7.15 Log10TCID50. The “Titer (Log10TCID50/mL)” value in data set [1] (10,000 μM L-arginine alone) is 7.21 ± 0.06 Log10TCID50/mL and 7.09 ± 0.09 Log10TCID50/mL and 7.15 ± 0.08 Log10TCID50/mL. The “Log10 Titer Difference” value in data set [1] (10,000 μM L-arginine alone) was 0.82 Log10 and 0.70 Log10 and 0.76 Log10. The “Viral Reduction (%)” value in data set [2] (5,000 μM L-arginine alone) turned out to be 32%; in data set [2] (25,000 μM L-arginine alone) it was 66%. Moreover, the “Log10 titer reduction (peak of replicates)” value was found to be 0.28 Log10 in data set [3] (0.5 mM L-arginine alone, vs input virus control average) and 0.04 Log10 in data set [3] (2 mM L-arginine alone, vs input virus control average). Also, the Log10 Titer Reduction entry in data set [3] (5 mM L-arginine alone, vs input virus control average) is given as “no Log10 titer reduction”; in data set [3] (5 mM L-arginine, HSV-1, contact time 48 ± 2 hours, input viral titer 8.50, 3 replicates), “No reduction”.

In the case of `N[C@@H](Cc1c[nH]cn1)C(=O)O` [L-Histidine, L-histidine], the “Titer (Log10TCID50/mL)” value in data set [3] (0.5 mM L-histidine alone, contact time 48 ± 2 hours) is 8.46 ± 0.09 Log10TCID50/mL and 8.76 ± 0.06 Log10TCID50/mL and 8.76 ± 0.10 Log10TCID50/mL; in data set [3] (1 mM L-histidine alone, contact time 48 ± 2 hours), 8.70 ± 0.11 Log10TCID50/mL and 8.40 ± 0.11 Log10TCID50/mL; in data set [3] (5 mM L-histidine alone, contact time 48 ± 2 hours), 8.52 ± 0.10 Log10TCID50/mL and 8.82 ± 0.08 Log10TCID50/mL and 8.64 ± 0.06 Log10TCID50/mL; in data set [3] (10 mM L-histidine alone, contact time 48 ± 2 hours), 8.70 ± 0.00 Log10TCID50/mL and 8.64 ± 0.06 Log10TCID50/mL; in data set [3] (25 mM L-histidine alone, contact time 48 ± 2 hours), 8.64 ± 0.10 Log10TCID50/mL and 8.52 ± 0.12 Log10TCID50/mL and 8.70 ± 0.00 Log10TCID50/mL. Besides, the “Log10 titer reduction (peak of replicates)” value in data set [3] (0.5 mM L-histidine alone, vs input virus control average) amounted to 0.04 Log10; in data set [3] (1 mM L-histidine alone, vs input virus control average), 0.10 Log10. Further, the “Output Viral Titer (Log10TCID50)” value was 8.46 Log10TCID50 and 8.76 Log10TCID50 (2×) in data set [3] (0.5 mM L-histidine, HSV-1, contact time 48 ± 2 hours, 3 replicates); 8.76 Log10TCID50 and 8.70 Log10TCID50 and 8.40 Log10TCID50 in data set [3] (1 mM L-histidine, HSV-1, contact time 48 ± 2 hours, 3 replicates); 8.52 Log10TCID50 and 8.82 Log10TCID50 and 8.64 Log10TCID50 in data set [3] (5 mM L-histidine, HSV-1, contact time 48 ± 2 hours, 3 replicates); 8.70 Log10TCID50 and 8.64 Log10TCID50 (2×) in data set [3] (10 mM L-histidine, HSV-1, contact time 48 ± 2 hours, 3 replicates). In addition, the Log10 Titer Reduction result is “no Log10 titer reduction” in data set [3] (5 mM L-histidine alone, vs input virus control average); “No reduction” in data set [3] (5 mM L-histidine, HSV-1, contact time 48 ± 2 hours, input viral titer 8.50, 3 replicates); “no Log10 titer reduction” in data set [3] (10 mM L-histidine alone, vs input virus control average); “No reduction” in data set [3] (10 mM L-histidine, HSV-1, contact time 48 ± 2 hours, input viral titer 8.50, 3 replicates).

Regarding `NC[C@H]1CC[C@H](C(=O)O)CC1` [Tranexamic Acid (TA)], the “Output Viral Titer (Log10TCID50)” value in data set [3] (2% (w/v) tranexamic acid, HSV-1, contact time 48 ± 2 hours, 3 replicates) was 7.15 Log10TCID50 and 7.21 Log10TCID50 and 7.27 Log10TCID50. In data set [3] (2% (w/v) tranexamic acid, HSV-1, contact time 48 ± 2 hours, input viral titer 8.50, 3 replicates), the “Log10 Titer Reduction” value was 1.35 Log10 and 1.29 Log10 and 1.23 Log10.

On to `NC[C@H]1CC[C@H](C(=O)O)CC1` [Tranexamic Acid, tranexamic acid], for which the “Output Viral Titer (Log10TCID50)” value is 5.30 Log10TCID50 and 5.12 Log10TCID50 in data set [1] (2% (w/v) tranexamic acid alone); 5.77 Log10TCID50 and 5.71 Log10TCID50 in data set [6] (setting [12]); 7.62 Log10TCID50 and 7.44 Log10TCID50 and 7.38 Log10TCID50 in data set [6] (setting [14]); 5.60 Log10TCID50 and 5.83 Log10TCID50 and 5.89 Log10TCID50 in data set [6] (setting [16]); 6.19 Log10TCID50 and 6.43 Log10TCID50 and 6.37 Log10TCID50 in data set [7] (setting [11]); 5.24 Log10TCID50 and 5.54 Log10TCID50 in data set [7] (setting [12]). Moreover, the “Output Viral Titer (Log10TCID50)” value in data set [7] (setting [14]) is 6.43 Log10TCID50 and 6.61 Log10TCID50; in data set [7] (setting [16]), 4.34 Log10TCID50; in data set [7] (setting [18]) it was 5.71 Log10TCID50 and 5.42 Log10TCID50. Also, the “Titer (Log10TCID50/mL)” value in data set [1] (2% (w/v) tranexamic acid alone) is 5.24 ± 0.08 Log10TCID50/mL and 5.30 ± 0.10 Log10TCID50/mL and 5.12 ± 0.10 Log10TCID50/mL; in data set [3], 7.15 ± 0.08 Log10TCID50/mL and 7.21 ± 0.06 Log10TCID50/mL and 7.27 ± 0.00 Log10TCID50/mL; in data set [6] (setting [12]) it was 5.54 ± 0.09 Log10TCID50/mL and 5.77 ± 0.10 Log10TCID50/mL and 5.71 ± 0.08 Log10TCID50/mL; in data set [6] (setting [14]), 7.62 ± 0.08 Log10TCID50/mL and 7.44 ± 0.11 Log10TCID50/mL and 7.38 ± 0.10 Log10TCID50/mL; in data set [6] (setting [16]) it was 5.89 ± 0.10 Log10TCID50/mL and 5.60 ± 0.09 Log10TCID50/mL and 5.83 ± 0.08 Log10TCID50/mL; in data set [7] (setting [11]), 6.19 ± 0.08 Log10TCID50/mL and 6.43 ± 0.13 Log10TCID50/mL and 6.37 ± 0.11 Log10TCID50/mL. Besides, the “Titer (Log10TCID50/mL)” value in data set [7] (setting [14]) was 6.43 ± 0.12 Log10TCID50/mL and 6.61 ± 0.11 Log10TCID50/mL and 6.43 ± 0.13 Log10TCID50/mL; in data set [7] (setting [18]), 5.71 ± 0.12 Log10TCID50/mL and 5.42 ± 0.06 Log10TCID50/mL. Also, the “Viral Reduction (%)” value was 93% and 92% and 95% in data set [1] (2% (w/v) tranexamic acid alone); 95% in data set [1] (setting [10]); 99.6% and 99.7% and 99.3% in data set [2] (2% (w/v) tranexamic acid alone); 99.7% in data set [2] (setting [10]). Besides, the “Log10 Titer Difference” value in data set [1] (2% (w/v) tranexamic acid alone) was −1.15 Log10 and −1.09 Log10 and −1.27 Log10. Moreover, in data set [3] (2% (w/v) tranexamic acid alone, vs input virus control average), the “Log10 titer reduction (peak of replicates)” value is given as 1.29 Log10. The “maximum concentration that could be used without cytotoxicity” value in data set [4] is listed as 2 % (w/v). Further, the “outcome of cold sore outbreak” value in data set [5] (fourth subject, 10% (w/v) tranexamic acid topically a single time at onset) was “the following morning the blister was gone and the outbreak had ceased”. Besides, the “cold sore outbreaks during the year” value in data set [5] (one subject, 3 or 10% (w/v) tranexamic acid applied to face daily for approximately one year, usual experience 3 to 5 outbreaks) is listed as “one”. Also, the “time until cold sore had healed to only a small red spot” value in data set [5] (person, approximately 0.25 mL aqueous solution of 5% (w/v) tranexamic acid by swab, 5 times over 36 hours) is ≤ 36 h. Further, the “time until symptoms of the outbreak resolved” value in data set [5] (three human subjects, 3% (w/v) tranexamic acid topically several times a day from beginning of outbreak, usual duration about 2 weeks) is ≤ 48 h. Besides, the “Reduction (%)” value is 52.85% in data set [6] (setting [11]); 78.94% and 64.24% and 68.85% in data set [6] (setting [12]); 78.94% in data set [6] (setting [13]); 37.85% and 58.94% and 64.24% in data set [6] (setting [14]); 64.24% in data set [6] (setting [15]); 75.82% and 58.94% and 52.85% in data set [6] (setting [16]). Further, the “Reduction (%)” value in data set [6] (setting [17]) was 75.82%; in data set [6] (setting [18]), 99.98% and 99.85%; in data set [7] (setting [11]) it was 45.9%; in data set [7] (setting [12]), 62.9% and 90.5% and 81.0%; in data set [7] (setting [13]), 90.5%; in data set [7] (setting [15]), 5.9%. For the same compound, the “Reduction (%)” value in data set [7] (setting [16]) was 97.9% and 98.8% and 75.5%; in data set [7] (setting [17]), 98.8%; in data set [7] (setting [18]) it was 82.1% and 90.8%; in data set [7] (tranexamic acid 2.0% (w/v), high virus inocula, listed as tranexamic acid), 90.8%.
